{"source": "paper PMC11153573", "about": "“Structural basis for expanded substrate specificities of human long chain acyl-CoA dehydrogenase and related acyl-CoA dehydrogenases” (Scientific Reports, 2024)", "key": {"[1]": {"target": "T1, human long-chain acyl-CoA dehydrogenase (LCAD) (Homo sapiens, UniProt P28330)", "T1 construct": "gene ACADL; 400-residue mature protein without 30-residue mitochondrial transport peptide; pET11a-LCAD in E. coli BL21(DE3); no tag mentioned; 43 kDa subunit, homotetramer; numbering of the 430-residue preprotein", "T1 sequence (P28330 31-430)": "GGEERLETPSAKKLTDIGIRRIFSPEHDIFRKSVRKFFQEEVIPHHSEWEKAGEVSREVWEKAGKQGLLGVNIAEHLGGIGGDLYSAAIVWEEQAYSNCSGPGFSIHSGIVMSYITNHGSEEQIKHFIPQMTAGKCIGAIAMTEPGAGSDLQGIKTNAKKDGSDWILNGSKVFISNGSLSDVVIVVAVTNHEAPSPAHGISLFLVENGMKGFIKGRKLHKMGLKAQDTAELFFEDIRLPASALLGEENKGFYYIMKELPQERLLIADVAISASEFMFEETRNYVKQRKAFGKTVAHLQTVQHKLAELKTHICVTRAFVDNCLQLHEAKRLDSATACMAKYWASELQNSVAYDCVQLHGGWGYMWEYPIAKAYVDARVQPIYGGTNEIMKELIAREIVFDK", "assay": "ferricenium reduction assay, spectrophotometric", "assay_type": "biochemical", "settings": "ferricenium as terminal electron acceptor"}, "[2]": {"target": "T1, human long-chain acyl-CoA dehydrogenase (LCAD)", "assay": "X-ray crystallography, […] Å", "assay_type": "binding", "settings": "noncovalent, one FAD per subunit, at dimer interface; no substrate ligand; pH 8.2-8.5"}, "[3]": {"target": "T2, human long-chain acyl-CoA dehydrogenase (LCAD) (Homo sapiens, UniProt P28330, E291Q)", "T2 construct": "gene ACADL; 400-residue mature protein without 30-residue mitochondrial transport peptide; pET11a-LCAD in E. coli BL21(DE3); no tag mentioned; 43 kDa subunit, homotetramer; numbering of the 430-residue preprotein", "T2 sequence (P28330 31-430 E291Q)": "T1 sequence (P28330 31-430) with E261Q", "assay": "X-ray crystallography, […] Å, co-crystallized with C12-CoA", "assay_type": "binding", "settings": "noncovalent, one FAD per subunit; pH 8.2-8.5"}, "[4]": {"target": "T1, human long-chain acyl-CoA dehydrogenase (LCAD)", "assay": "X-ray crystallography, […] Å, soaked crystal", "assay_type": "binding", "settings": "active site; inhibitor; bound in monomers A and B only; 0.1% beta-octyl glucoside, pH 8.2-8.5"}}, "note": "Residue numbers refer to the chain shown, from its start.", "data": [{"molecule": "CCCCCCCCCCCC(=O)SCCNC(=O)CCNC(=O)[C@H](O)C(C)(C)COP(=O)(O)OP(=O)(O)OC[C@H]1O[C@@H](n2cnc3c(N)ncnc32)[C@H](O)[C@@H]1OP(=O)(O)O", "note": "[C12-CoA]", "values": [{"measurement": "ferricenium reduction assay, spectrophotometric", "setting": "[1]", "value": "The reaction was initiated by addition of C12-CoA substrate"}]}, {"molecule": "Cc1cc2nc3c(=O)[nH]c(=O)nc-3n(C[C@H](O)[C@H](O)[C@H](O)COP(=O)(O)OP(=O)(O)OC[C@H]3O[C@@H](n4cnc5c(N)ncnc54)[C@H](O)[C@@H]3O)c2cc1C", "note": "[FAD]", "values": [{"measurement": "X-ray crystallography, 2.5 Å", "setting": "[2]", "value": "The strong electron density map in the FAD position indicated the correctness of the solution"}, {"measurement": "X-ray crystallography, 2.0 Å, co-crystallized with C12-CoA", "setting": "[3]", "value": "FAD, Gly412, and the catalytic residue (E291Q) are shown as sticks"}]}, {"molecule": "CC(=O)CC(=O)SCCNC(=O)CCNC(=O)[C@H](O)C(C)(C)COP(=O)(O)OP(=O)(O)OC[C@H]1O[C@@H](n2cnc3c(N)ncnc32)[C@H](O)[C@@H]1OP(=O)(O)O", "note": "[acetoacetyl-CoA]", "values": [{"measurement": "X-ray crystallography, 2.8 Å, soaked crystal", "setting": "[4]", "value": "the inhibitor acetoacetyl-CoA can be soaked into the crystals"}]}]}
